Laboratory results taken from patent US20230097992A1, “BIVALENT EGF FUSION TOXINS” (The Regents of the University of Colorado, a body corporate, priority 2020, published 2023).
“And” between values parts separate entries of the source, which are not always exact repeats. Equal entries are not always repeated.

Tests used:
[1] = system: HNSCC Cal27 cells injected intravenously (lung metastases); test: Experimental lung metastasis NSG mouse model; format: in vivo, NSG mice; conditions: for Median survival time: Lung metastasis model, fusion toxin or DT390 50 μg/kg IP, erlotinib 20 mg/kg gavage, once daily for 10 days from day 4
Experimental: FIG. 8A-C presents data from in vivo efficacy analysis of the human EGF fusion toxins using an experimental lung metastasis NSG mouse model. FIG. 8A presents data from a first animal study for survival curve analysis. NSG mice were IV injected with one million human EGFR^+ HNSCC Cal27 cells on day 0. Mice were injected intraperitoneally (IP) with the EGF fusion toxin or DT390 at 50 μg/kg, once daily for 10 consecutive days starting on day 4 after the tumor cell injection. […] The schedule of the fusion toxin and tumor cell injection is pictured in the schematic below the survival curve. The vertical arrows indicate the days on which the tumor cells or the fusion toxins were injected. *P<0.05; **P<0.01; ***P<0.001; ****P<0.0001. The P-values for the survival curves were calculated using the Mantel-Cox log-rank test (GraphPad Prism9.0).
FIGS. 8B and C present data from a second animal study for a pathology analysis. […] The mice were euthanized on day 10 after tumor cell injection when the first mouse in the DT390 group reached the end point. FIG. 8B presents H&E pictures of lung metastases. Metastases are indicated in the upper panels by black arrowheads. Scale bar: 500 μm. The lower panels are higher magnification pictures of the area in black rectangles in the upper panels. […] Error bars indicate standard deviation (SD).
(§1) HNSCC tumor cells were injected via the following routes: 1) Flank-xenograft solid tumor model: eight million human HNSCC Cal27 tumor cells were subcutaneously injected into the right flank at day 0. The tumor-bearing mice were randomly divided into the four experimental groups when the tumors were palpable at day 3. The tumor volume was measured using digital vernier calipers every 3 days and calculated according to the formula: volume (mm^3)=(length×width×width)/2. 2) Tongue-orthotopic solid tumor model: eight million human HNSCC Cal27 tumor cells in 50 μl DMEM were injected into the tongue at day 0 following isoflurane anesthesia and the tumor-bearing mice were randomly divided into the planned four experimental groups at day 3. 3) Experimental metastasis model: one million human HNSCC Cal27 tumor cells in 200 μl DMEM were intravenously injected at day 0 via tail vein and the tumor-bearing mice were randomly divided into the four experimental groups at day 3.
(§2) Mono-EGF-IT (mEGF-IT), bEGF-IT, or DT390 was intraperitoneally injected (IP) starting at day 4 at 50 μg/kg, once daily for 10 consecutive days. […] The injected animals were observed daily for signs and symptoms of illness and scored at least twice weekly based on the parameters as previously reported (Peraino et al. (2013), J. Immunol. Methods 398-399, 33-43, which is hereby incorporated by reference in its entirety; Wang et al., 2015). The animals were humanely euthanized when the score exceeded the limit or the animal lost more than 15% of its pre-injection body weight. In addition, to assess whether the fusion toxins are toxic to the animals, NSG mice injected with the fusion toxins only were also included as control.
The third in vivo efficacy model was an experimental metastasis model. One million of HNSCC Cal27 tumor cells were intravenously injected via the tail vein of NSG mice at day 0. The EGF fusion toxins were injected intraperitoneally (IP) starting on day 4 at 50 μg/kg daily for 10 consecutive days. […] To further assess the effects of the fusion toxins on metastasis, the experimental metastasis study was repeated with a second cohort of NSG mice, and all mice were euthanized 10 days after tumor cell inoculation, when the first mouse in the DT390 group reached the end point. The data are depicted in FIGS. 8B and C.

[2] = system: HNSCC Cal27 tongue-orthotopic tumors; test: Tongue-orthotopic tumor-bearing NSG mouse model; format: in vivo, NSG mice; conditions: Tongue orthotopic model; fusion toxin or DT390 50 μg/kg IP, erlotinib 20 mg/kg gavage, once daily for 10 days from day 4
Experimental: FIGS. 7A-7C presents the data from two animal studies of in vivo efficacy analysis of the human EGF fusion toxins against tongue squamous cell carcinomas (SCCs) in NSG mice. FIG. 7A presents the data from in vivo efficacy analysis of the human EGF fusion toxins using human EGFR-positive HNSCC Cal27 tongue-orthotopic tumor-bearing NSG mouse model. Eight million human EGFR-positive HNSCC Cal27 cells were injected into the tongue on day 0. Mice were injected intraperitoneally (IP) with the EGF fusion toxin or DT390 at 50 μg/kg, starting on day 4, once daily for 10 consecutive days. […] The schedule of the fusion toxin and tumor cell injection is pictured in the schematic below the survival curve. The vertical arrows indicate the days on which the tumor cells or the fusion toxins were injected. *P<0.05; **P<0.01; ***P<0.001; ****P<0.0001; ns: not significant.
FIG. 7B presents the data from a further in vivo efficacy analysis of the human EGF fusion toxins. […] The mice were euthanized on day 8 after tumor cell injection when the first mouse in the DT390 group reached the end point. The photograph depicts tongue squamous cell carcinomas (SCCs) (circled by the black dotted lines). Scale bar: 1 cm. FIG. 7C presents the FIG. 7B tumor volume comparison of the treatment groups. *P<0.05; **P<0.01
as §1, §2
To assess the in vivo efficacy of the human EGF fusion toxins to the xenograft tumors in the head and neck area, a tongue-orthotopic tumor-bearing NSG mouse model was used as a second efficacy model. Eight million HNSCC Cal27 cells were injected into the tongue at day 0. The EGF fusion toxins were injected intraperitoneally (IP) starting on day 4 at 50 μg/kg daily for 10 consecutive days. Since the resulting tongue-orthotopic tumors severely affected the animal's eating and drinking, animals were euthanized earlier. Therefore, the median survival prolongation was not as impressive as that observed in the flank-xenograft solid tumor-bearing NSG mouse model. […] To further characterize the effect of the EGF fusion toxins on tumor volume, the orthotopic tongue SCC model study was repeated, and the mice were euthanized 8 days after tumor cell inoculation.

[3] = system: HNSCC Cal27 subcutaneous xenografts; test: Flank-xenograft solid tumor-bearing NSG mouse model; format: in vivo, NSG mice; conditions: Subcutaneous xenograft model; fusion toxin or DT390 50 μg/kg IP, erlotinib 20 mg/kg gavage, once daily for 10 days from day 4
From the text: FIGS. 6A-6D presents the data from in vivo efficacy analysis of the human EGF fusion toxins against subcutaneous xenografts in NSG mice from two animal studies. FIG. 6A depicts the survival curve for NSG mice injected with Cal27 cells. […] FIGS. 6B-D depict tumor volume and weight data from the second study performed with a second cohort of NSG mice. […] Mice were euthanized on day 14 after tumor cell injection, when the first mouse in the DT390 group reached the end point. FIG. 6B: Tumor volumes were measured periodically, and the growth kinetics of the four groups were plotted. FIG. 6B depicts the tumor growth kinetics for a period of 14 days. FIG. 6C presents a bar graph representing the tumor weights at day 14. FIG. 6D depicts images of harvested tumors on day 14. Scale bar: 1 cm. FIGS. 6A-6C: *P<0.05; **P<0.01; ***P<0.001; ****P<0.0001; ns: not significant. The P-values for the survival curves in FIG. 6A were calculated using the Mantel-Cox log-rank test and that for the comparisons in FIGS. 6B and C were calculated using the two-tailed Student t-test (GraphPad Prism 9.0.0).
as §1, §2
In vivo efficacy of the mEGF-IT and bEGF-IT against HNSCC was assessed using three immunodeficient tumor-bearing NSG mouse models. The first in vivo efficacy model was a flank-xenograft solid tumor-bearing NSG mouse model. Eight million Cal27 tumor cells were injected subcutaneously (SQ) into the right flank at day 0. The EGF fusion toxins were injected intraperitoneally (IP) starting on day 4 at 50 μg/kg daily for 10 consecutive days. […] The reduction of the tumor volumes, weights and sizes (FIGS. 6B-6D) were all consistent with the median survival prolongation.

[4] = system: 14 EGFR+ HNSCC cells lines; test: Flow cytometry binding, all 14 EGFR+ HNSCC cell lines together; set-up: species or system human; conditions: mean over the 14 EGFR+ HNSCC cell lines
NSG mice = test: In vivo off-target toxicity in NSG mice
From the text: FIGS. 12A-C presents representative images of necropsy results for NSG mice treated with mono-EGF-IT or bi-EGF-IT without tumor cell injection. Mice were euthanized on day 13 after the first injection of the fusion toxins. The images show representative gross changes observed in the ear (FIG. 12A), liver (FIG. 12C) and gastrointestinal tract of a representative NSG mouse treated with mono-EGF-IT compared to a representative NSG mouse treated with bi-EGF-IT.
as §2
The main side effects of targeting EGFR are caused by off-target effects, because EGFR is expressed in many healthy tissues, include skin, liver, and gastrointestinal tract (Widakowich et al., (2007), Oncologist, 12, 1443-1455). […] To further assess these toxic effects, another in vivo toxicity study in non-tumor-bearing mice was performed. NSG mice were treated with mono-EGF-IT or bi-EGF-IT, without tumor cell injection.

[5] = non-tumor-bearing NSG mice, 13 days after the first injection

DT390 was tested, and the Median survival time [1] was 8.5 days, the Median survival time [2] was 10 days and the Median survival time [3] was 14 days and 13 days.
For “Mono-EGF IT: DT390 joined by G4S to one human EGF domain, C-terminal 6×His tag; SEQ ID NO: 15”, the Median survival time [1] was 32 days, the “number of metastases in the lungs” value ([1]; second cohort, euthanized 10 days after tumor cell inoculation) was “reduced compared with the DT390-negative control group” and the Median survival time [2] was 11 days. The Kd [4] was 12.2 nM, the “adverse effects observed in treated mice” value (NSG mice; mice of the efficacy studies) was “generally unhealthy and lethargic and developed skin rashes” and the “general condition and skin” value (NSG mice; non-tumor-bearing NSG mice) was “generally unhealthy and lethargic with skin rashes”. The “necropsy, gastrointestinal tract” value (NSG mice; [5]) was “mildly pale with scant ingesta in the stomach or cecum”, the “necropsy, liver” value (NSG mice; [5]) was “diffuse pale livers with moderate reticular patterns” and the Median survival time [3] was 14 days.
